SMILES strings stand for the structures.

We go through 19 compounds from patent US20250270215A1, “IMIDAZOLE DERIVATIVES AS ALK5 INHIBITORS” (CHIESI FARMACEUTICI S.P.A., priority 2022, published 2025).

Sequence of human ALK5 (P36897 80-503 limits assumed): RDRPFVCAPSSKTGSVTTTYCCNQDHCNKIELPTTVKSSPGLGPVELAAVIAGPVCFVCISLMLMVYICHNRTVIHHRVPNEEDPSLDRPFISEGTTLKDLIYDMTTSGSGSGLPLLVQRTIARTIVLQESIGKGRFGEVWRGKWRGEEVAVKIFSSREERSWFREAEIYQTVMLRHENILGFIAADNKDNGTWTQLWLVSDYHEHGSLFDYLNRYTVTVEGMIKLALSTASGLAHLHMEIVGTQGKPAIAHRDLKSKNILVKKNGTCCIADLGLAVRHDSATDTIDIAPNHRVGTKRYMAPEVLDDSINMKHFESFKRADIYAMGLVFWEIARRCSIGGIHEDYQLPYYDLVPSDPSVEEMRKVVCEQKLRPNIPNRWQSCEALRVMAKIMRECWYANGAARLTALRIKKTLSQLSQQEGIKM

This assay concerns the target human ALK5 (Homo sapiens (Human), UniProt P36897). The assay is described as follows: ADP-GLO Kinases assay (ALK5 enzymatic activity). The class given is biochemical. As to conditions: purified recombinant human ALK5 2.6 nM, TGFβ1 peptide substrate, 25° C., 150 min incubation, ADP-Glo detection. The procedure:
The enzymatic activity of compounds of the present invention was monitored measuring the formation of ADP using the ADP-GLO Kinases assay. Following the incubation of the purified enzyme, a substrate and ATP, the produced ADP was converted into ATP, which in turn was converted into light by Ultra-Glo Luciferase. The luminescent signal positively correlated with ADP amount and kinase activity. Briefly, the kinase reaction was performed by incubating 2.6 nM of the purified, commercially available human ALK5 (recombinant TGF β1 N-term GST-tagged, 80-end), a final concentration of TGFβ1 peptide 94.5 μM (Promega, T36-58) and ultra-pure ATP (Promega V915B). The ATP concentration was set at the Km value (concentration of substrate which permits the enzyme to achieve half maximal velocity (Vmax)) of ALK5 (5 μM). All reactions/incubations were performed at 25° C. Compound and ALK5 kinase were mixed and incubated for 15 mins. Reactions were initiated by addition of ATP at a final concentration in the assay of 0.83 μM. After an incubation of 150 min, the reaction was stopped, and ADP production detected with ADP-Glo kit according to manufacturer's indications. The assay was performed in 384-well format and was validated using a selection of reference compounds that was tested in 11 point concentration-response curve.
On the technique in general: ADP-Glo first removes unused ATP, then detects ADP through luciferase.
The term IC50 denotes the midpoint of a concentration-inhibition curve. On to `Cc1csc(-c2nc3n(c2-c2cc4cnccc4s2)CCN3)n1` [Example 7, 2-(6-(4-Methylthiazol-2-yl)-2,3-dihydro-1H-imidazo[1,2-a]imidazol-5-yl)thieno[3,2-c]pyridine], for which the IC50 is < 1 nM.
Turning to `Cn1ccc(-c2nc3n(c2-c2ccc4ncnn4c2)CCN3)n1` [Example 8, 6-(6-(1-Methyl-1H-pyrazol-3-yl)-2,3-dihydro-1H-imidazo[1,2-a]imidazol-5-yl)-[1,2,4]triazolo[1,5-a]pyridine], the IC50 lay within 5 to 10 nM.
The result for `Cn1ccc(-c2nc3n(c2-c2cc4cnccc4s2)CCN3)n1` [Example 9, 2-(6-(1-Methyl-1H-pyrazol-3-yl)-2,3-dihydro-1H-imidazo[1,2-a]imidazol-5-yl)thieno[3,2-c]pyridine] reads 1 to 5 nM.
For the compound `Cc1cccc(-c2nc3n(c2-c2cccc4ncsc24)CCN3)n1` [Example 15], the IC50 was in the range of 5 to 10 nM.
As to `CCOC(=O)CC1Cn2c(nc(-c3cccc(C)n3)c2-c2cc3cnccc3s2)N1` (stereo not shown) [Example 20, Ethyl 2-[6-(6-methylpyridin-2-yl)-5-{thieno[3,2-c]pyridin-2-yl}-1H,2H,3H-imidazo[1,2-a][1,3]diazol-2-yl] acetate], the IC50 lay in the range of 1 to 5 nM.
Take `Cc1cccc(-c2nc3n(c2-c2cc4cnccc4s2)CC(CC(=O)O)N3)n1` (stereo not shown) [Example 21, 2-[6-(6-Methylpyridin-2-yl)-5-{thieno[3,2-c]pyridin-2-yl}-1H,2H,3H-imidazo[1,2-a][1,3]diazol-2-yl]acetic acid]: the half-maximal inhibitory concentration (IC50) fell in the range of 1 to 5 nM.
Turning to `CCN1CCn2c1nc(-c1cccc(C)n1)c2-c1ccc2ncnn2c1` [Example 22, 6-(1-Ethyl-6-(6-methylpyridin-2-yl)-2,3-dihydro-1H-imidazo[1,2-a]imidazol-5-yl)-[1,2,4]triazolo[1,5-a]pyridine], the half-inhibitory concentration (IC50) is < 1 nM.
In the case of `CCOC(=O)C1Cn2c(nc(-c3cccc(C)n3)c2-c2ccc3ncnn3c2)N1` (stereo not shown) [Example 26, Ethyl 6-(6-methylpyridin-2-yl)-5-{[1,2,4]triazolo[1,5-a]pyridin-6-yl}-1H,2H,3H-imidazo[1,2-a][1,3]diazole-2-carboxylate], the IC50 lay within 1 to 5 nM.
As for `Cc1cccc(-c2nc3n(c2-c2cc4cnccc4s2)CC(C(=O)N(C)C)N3)n1` (stereo not shown) [Example 29, N,N-Dimethyl-6-(6-methylpyridin-2-yl)-5-{thieno[3,2-c]pyridin-2-yl}-1H,2H,3H-imidazo[1,2-a][1,3]diazole-2-carboxamide], the IC50 was in the range of 1 to 5 nM.
Consider `Cc1cccc(-c2nc3n(c2-c2ccc4snnc4c2)CCN3)n1` [Example 30, 5-(6-(6-Methylpyridin-2-yl)-2,3-dihydro-1H-imidazo[1,2-a]imidazol-5-yl)benzo[d][1,2,3] thiadiazole], for which the IC50 was 1 to 5 nM.
`Cc1cccc(-c2nc3n(c2-c2ccc4nnsc4c2)CCN3)n1` [Example 31, 6-(6-(6-Methylpyridin-2-yl)-2,3-dihydro-1H-imidazo[1,2-a]imidazol-5-yl)benzo[d][1,2,3] thiadiazole]: the IC50 was < 1 nM.
In the case of `CCN1CCn2c1nc(-c1cccc(C)n1)c2-c1ccc2ncsc2c1` [Example 33, 6-[1-Ethyl-6-(6-methylpyridin-2-yl)-1H,2H,3H-imidazo[1,2-a][1,3]diazol-5-yl]-1,3-benzothiazole], the concentration for half-maximal inhibition (IC50) was < 1 nM.
To `Cc1cccc(-c2nc3n(c2-c2ccnc4[nH]ccc24)CCN3)n1` [Example 35, 4-(6-(6-Methylpyridin-2-yl)-2,3-dihydro-1H-imidazo[1,2-a]imidazol-5-yl)-1H-pyrrolo[2,3-b]pyridine] belongs 1 to 5 nM; to `CCN1CCn2c1nc(-c1cccc(C)n1)c2-c1cc2cnccc2s1` [Example 42, 2-(1-Ethyl-5-{thieno[3,2-c]pyridin-2-yl}-1H,2H,3H-imidazo[1,2-a] [1,3]diazol-6-yl)-6-methylpyridine], 1 to 5 nM.
For the compound `Cc1cccc(-c2nc3n(c2-c2ccc(F)c(N)c2)CCN3)n1` [Example 43, 2-Fluoro-5-(6-(6-methylpyridin-2-yl)-2,3-dihydro-1H-imidazo[1,2-a]imidazol-5-yl) aniline], the IC50 was 1 to 5 nM.
To `Cc1cccc(-c2nc3n(c2-c2ccc4nc(N)sc4c2)CCN3)n1` [Example 48, 6-(6-(6-Methylpyridin-2-yl)-2,3-dihydro-1H-imidazo[1,2-a]imidazol-5-yl)benzo[d] thiazol-2-amine] belongs 1 to 5 nM.
Turning to `Cc1cccc(-c2nc3n(c2-c2ccc(O)cc2)CCN3)n1` [Example 55, 4-[6-(6-Methylpyridin-2-yl)-1H,2H,3H-imidazo[1,2-a][1,3]diazol-5-yl]phenol], the half-inhibitory concentration (IC50) was 1 to 5 nM.
In the case of `Cc1cccc(-c2nc3n(c2-c2ccnc(N)c2)CCN3)n1` [Example 56, 4-[6-(6-Methylpyridin-2-yl)-1H,2H,3H-imidazo[1,2-a][1,3]diazol-5-yl]pyridin-2-amine], the IC50 was in the range of 5 to 10 nM.
Regarding `COc1cccc(-c2nc3n(c2-c2ccc4ncsc4c2)CCN3)n1` [Example 57, 6-[6-(6-Methoxypyridin-2-yl)-1H,2H,3H-imidazo[1,2-a][1,3]diazol-5-yl]-1,3-benzothiazole], the IC50 was < 1 nM.
